Test results as given in publication PMC8424629, “Chemical “Butterfly Effect” Explaining the Coordination Chemistry and Antimicrobial Properties of Clavanin Complexes” (Inorganic Chemistry, 2021).
Values after ≈ are worked out from the molar mass of the structure shown. Like-named read-outs stand apart in the source and are kept apart here.

Columns and labels:
[1] = type: physicochemical
Description: (§1) All peptides ([…]-COOH, […]-COOH, […]
(§2) were purchased from KareBay Biochem (USA) (certified purity: 98 %) and were used as received.
(§3) The carbonate-free stock solutions of 0.1 M NaOH were purchased from Sigma-Aldrich and then potentiometrically standardized with the primary standard potassium hydrogen phthalate (99.9 % purity). […]
(§4) Stability constants for proton, Zn(II) and Cu(II) complexes were calculated from pH -metric titration curves carried out over the pH range 2-11 at T = 298 K in water solution of 4 mM HClO 4 and ionic strength 40 mM (SDS), using a total volume of 3 ml. The potentiometric titrations were performed using a Metrohm Titrando 905 titrator and a Mettler Toledo InLab Micro comb ined pH electrode. The thermostabilized glass -cell was equipped with a magnetic stirring system, a microburette delivery tube and an inlet –outlet tube for argon.
(§5) Solutions were titrated with 0.1 M carbonate-free NaOH. The electrodes were calibrated daily f or hydrogen ion concentration by titrating HClO 4 with NaOH under the same experimental conditions as above. The purities and the exact concentrations of the ligand solutions were determined by the Gran method. 1 The ligand concentration was 0.5 mM. The Zn(II) and Cu(II) to ligand ratio was 1 : 1.
(§6) The standard potential and the slope of the electrode couple were computed by means of Glee 2 program. The HYPERQUAD 20063 program was used for the stability constant calculations. The standard deviations were computed by HYPERQUAD 2006 and refer to random errors only. The constants for the hydrolytic Zn(II ) species

[2] = type: binding
Description: as §1, §2, §3, §4, §5, §6

[3] = system: Enterococcus faecalis ATCC 29212; conditions: ATCC 29212, 24 h
[4] = system: MRSA Staphylococcus aureus ATCC 43300; conditions: ATCC 43300, 24 h
[5] = system: Candida albicans ATCC 10231; conditions: ATCC 10231, 24 h
[6] = system: Candida albicans ATCC 10231; assay: microbe, parasite or virus in culture; conditions: ATCC10231, 24 h
[7] = system: Escherichia coli ATCC 25922; assay: microbe, parasite or virus in culture; conditions: ATCC25922, 24 h
[8] = system: Pseudomonas aeruginosa ATCC 27853; assay: MIC, broth microdilution, reference strain; type: cell-based; conditions: ATCC27853, microdilution 0.5-256 µg/mL, TSB, 24 h, 37 °C, OD 580 nm
[9] = system: Enterococcus faecalis ATCC 29212; assay: microbe, parasite or virus in culture; conditions: ATCC29212, 24 h
[10] = system: MRSA Staphylococcus aureus ATCC 43300; assay: microbe, parasite or virus in culture; conditions: 24 h
[11] = system: Escherichia coli ATCC 25922; conditions: ATCC 25922, 24 h
[12] = potentiometry pH 2-11, 298 K, 4 mM HClO4, I = 40 mM SDS, ligand 0.5 mM, SD in parentheses
[13] = potentiometry, 298 K, I = 40 mM SDS, Cu(II):L 1:1, 0.5 mM, SD in parentheses
[14] = potentiometry, 298 K, I = 40 mM SDS, Zn(II):L 1:1, 0.5 mM, SD in parentheses

## CC[C@H](C)[C@H](NC(=O)[C@H](CCCCN)NC(=O)CNC(=O)[C@H](CC(C)C)NC(=O)[C@H](CC(C)C)NC(=O)[C@H](Cc1c[nH]cn1)NC(=O)[C@H](Cc1ccccc1)NC(=O)[C@@H](N)C(C)C)C(=O)N[C@H](C(=O)N[C@@H](Cc1c[nH]cn1)C(=O)N[C@@H](Cc1c[nH]cn1)C(=O)N[C@H](C(=O)NCC(=O)N[C@@H](CC(N)=O)C(=O)N[C@@H](Cc1ccccc1)C(=O)N[C@H](C(=O)N[C@@H](Cc1ccc(O)cc1)C(=O)NCC(=O)N[C@@H](Cc1ccccc1)C(=O)N[C@@H](CO)C(=O)N[C@@H](Cc1c[nH]cn1)C(=O)N[C@H](C(=O)N[C@@H](Cc1ccccc1)C(=O)O)C(C)C)C(C)C)C(C)C)[C@@H](C)CC [Clavanin C]
[1]
  pKa, species H2L: 8.87
  pKa, species H3L: 8.08
  pKa, species H4L: 7.57
  pKa, species H5L: 7.10
  pKa, species H6L: 5.25
  pKa, species HL: 10.72
[2]
  pKa, line CuH4L: 4.99
  pKa, line CuH-1L: 8.09
  pKa, line CuH-2L: 10.66
  pKa, line CuHL: 6.10
  pKa, line CuL: 6.98
[3]
  MIC: 128 µg/mL (≈ 48 µM)
[4]
  MIC: 128 µg/mL (≈ 48 µM)
[5]
  MIC: 64 µg/mL (≈ 24 µM)

## C[C@@H]1[C@H](O)[C@@H](C)/C=C/C=C/C=C/C=C/C=C/C=C/C=C/[C@H](O[C@@H]2O[C@H](C)[C@@H](O)[C@H](N)[C@@H]2O)C[C@@H]2O[C@](O)(C[C@@H](O)C[C@@H](O)[C@H](O)CC[C@@H](O)C[C@@H](O)CC(=O)O[C@H]1C)C[C@H](O)[C@H]2C(=O)O [amphotericin B]
[6]
  MIC: 1 µg/mL (≈ 1.08 µM)

## CNC(C)C1CCC(N)C(OC2C(N)CC(N)C(OC3OCC(C)(O)C(NC)C3O)C2O)O1 (stereo not drawn) [gentamicin]
[7]
  MIC: 2 µg/mL (≈ 4.19 µM)

## C[C@H]1COc2c(N3CCN(C)CC3)c(F)cc3c(=O)c(C(=O)O)cn1c23 [levofloxacin]
[8]
  MIC: 1 µg/mL (≈ 2.77 µM)
[9]
  MIC: 4 µg/mL (≈ 11.1 µM)
[10]
  MIC: 1 µg/mL (≈ 2.77 µM)

## H-AFKLLGRIIHHVGNFVYGFSHVF-OH [Clavanin D]
[1]
  pKa, species H2L: 10.08
  pKa, species H3L: 8.68
  pKa, species H4L: 7.81
  pKa, species H5L: 7.24
  pKa, species H6L: 5.26
  pKa, species HL: 11.13
[1]; [12]
  log β H2L: 21.21 (4)
  log β H3L: 29.89 (5)
  log β H4L: 37.70 (5)
  log β H5L: 44.94 (5)
  log β H6L: 50.20 (5)
  log β HL: 11.13 (6)
[2]
  pKa, line CuH2L: 6.95
  pKa, line CuH3L: 6.00
  pKa, line CuH4L: 5.23
  pKa, line CuH-1L: 9.92
  pKa, line CuH-2L: 10.54
  pKa, line CuH-3L: 11.91
  pKa, line CuHL: 7.94
  pKa, line CuL: 8.79
  pKa, line ZnH2L: 8.22
[2]; [13]
  log β CuH2L: 30.38 (2)
  log β CuH3L: 37.33 (2)
  log β CuH4L: 43.33 (1)
  log β CuH5L: 48.56 (3)
  log β CuH-1L: 3.73 (3)
  log β CuH-2L: -6.81 (4)
  log β CuH-3L: -18.72 (1)
  log β CuHL: 22.44 (3)
  log β CuL: 13.65 (3)
[2]; [14]
  log β ZnH2L: 25.94 (2)
  log β ZnH3L: 34.16 (3)
  log β ZnH5L: 47.63 (12)
  log β ZnL: 6.73 (14)
[11]
  MIC: 64 µg/mL
[3]
  MIC: 128 µg/mL
[4]
  MIC: 128 µg/mL
[5]
  MIC: 16 µg/mL
